Data reported in article PMC7993727, “Discovery of a novel AR/HDAC6 dual inhibitor for prostate cancer treatment” (Aging (Albany NY), 2021).

Key:
Type in all cases: cell-based
HSP90, HSP60, HSP70 = assay: expression levels of heat shock proteins
HEK293 cells = assay: cell proliferation assay; settings: Homo sapiens, HEK293, 72 h, read-out: IC50 values proliferation HEK293
AR = target: T1, AR (Homo sapiens, UniProt P10275); settings: VCaP cells, 24 hours
T1 construct: The VCaP cells were transfected with MMTV-LUC for 24 hours; endogenous in cells; host or cells: VCaP
T1 sequence (P10275 1-920): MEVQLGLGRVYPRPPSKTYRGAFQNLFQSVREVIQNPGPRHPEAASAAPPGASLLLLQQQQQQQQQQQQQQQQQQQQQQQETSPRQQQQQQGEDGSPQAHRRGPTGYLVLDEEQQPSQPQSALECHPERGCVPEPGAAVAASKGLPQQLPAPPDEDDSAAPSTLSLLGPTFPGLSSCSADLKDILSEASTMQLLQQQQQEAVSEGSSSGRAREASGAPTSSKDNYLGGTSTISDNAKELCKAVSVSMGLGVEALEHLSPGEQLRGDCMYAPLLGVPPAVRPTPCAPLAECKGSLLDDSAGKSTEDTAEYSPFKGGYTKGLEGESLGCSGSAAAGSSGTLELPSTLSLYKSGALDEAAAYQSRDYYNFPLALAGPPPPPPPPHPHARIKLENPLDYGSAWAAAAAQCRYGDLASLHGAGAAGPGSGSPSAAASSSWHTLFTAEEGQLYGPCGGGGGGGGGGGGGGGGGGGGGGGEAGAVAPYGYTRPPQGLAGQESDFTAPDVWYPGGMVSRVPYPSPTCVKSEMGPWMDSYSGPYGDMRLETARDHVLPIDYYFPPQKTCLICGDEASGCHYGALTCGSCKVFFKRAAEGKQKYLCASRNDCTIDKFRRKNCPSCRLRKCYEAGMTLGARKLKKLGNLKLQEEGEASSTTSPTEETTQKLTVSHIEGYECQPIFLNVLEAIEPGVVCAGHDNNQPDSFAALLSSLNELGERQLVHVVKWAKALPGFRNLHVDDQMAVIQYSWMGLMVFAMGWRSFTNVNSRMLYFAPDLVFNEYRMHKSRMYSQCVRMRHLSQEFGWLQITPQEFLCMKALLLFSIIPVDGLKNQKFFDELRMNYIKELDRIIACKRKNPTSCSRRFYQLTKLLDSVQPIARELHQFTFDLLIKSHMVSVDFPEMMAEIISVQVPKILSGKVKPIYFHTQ
Protocol: (§1) RNA expression level was analyzed by qRT-PCR and protein expression level was analyzed by Western blot. […] (I) Representative immunofluorescence microscopic images of VCaP cells for checking the subcellular localization of AR.
(§2) To evaluate the HDAC6 inhibition ability of Zeta55 in VCaP cells, the acetylation status of α-tubulin protein (a HDAC6 substrate) was assessed using western blot. […] We assessed the protein level of AR in VCaP cells.
(§3) The whole-cell extracts were prepared in lysis buffer with a protease inhibitor cocktail (Bimake), while the xenograft tissue extracts were prepared in 0.5% Nonidet P 40 Substitute solution (Biosharp) with cocktail protease inhibitor (Bimake). Each sample containing 30 μg of total protein was loaded onto 10% SDS-PAGE and electrotransferred onto polyvinylidene fluoride membranes. The membranes were blocked with 5% skimmed milk in PBST at room temperature for 2 hours and incubated with primary antibodies at 4° C overnight. After the membranes were washed with PBST three times, they were incubated with horseradish peroxidase-conjugated anti-rabbit or anti-mouse secondary antibody at room temperature for 1 hour. Chemiluminescent detection was performed with WesternBright ECL (Advansta). The immunoblots were visualized using the FluorChem FC3 system (ProteinSimple).

HDAC6 = target: T2, HDAC6 (Homo sapiens, UniProt Q9UBN7); assay: acetylation of α-tubulin (HDAC6 substrate) in VCaP cells, Western blot; settings: 24 hours
T2 sequence (Q9UBN7 1-1215): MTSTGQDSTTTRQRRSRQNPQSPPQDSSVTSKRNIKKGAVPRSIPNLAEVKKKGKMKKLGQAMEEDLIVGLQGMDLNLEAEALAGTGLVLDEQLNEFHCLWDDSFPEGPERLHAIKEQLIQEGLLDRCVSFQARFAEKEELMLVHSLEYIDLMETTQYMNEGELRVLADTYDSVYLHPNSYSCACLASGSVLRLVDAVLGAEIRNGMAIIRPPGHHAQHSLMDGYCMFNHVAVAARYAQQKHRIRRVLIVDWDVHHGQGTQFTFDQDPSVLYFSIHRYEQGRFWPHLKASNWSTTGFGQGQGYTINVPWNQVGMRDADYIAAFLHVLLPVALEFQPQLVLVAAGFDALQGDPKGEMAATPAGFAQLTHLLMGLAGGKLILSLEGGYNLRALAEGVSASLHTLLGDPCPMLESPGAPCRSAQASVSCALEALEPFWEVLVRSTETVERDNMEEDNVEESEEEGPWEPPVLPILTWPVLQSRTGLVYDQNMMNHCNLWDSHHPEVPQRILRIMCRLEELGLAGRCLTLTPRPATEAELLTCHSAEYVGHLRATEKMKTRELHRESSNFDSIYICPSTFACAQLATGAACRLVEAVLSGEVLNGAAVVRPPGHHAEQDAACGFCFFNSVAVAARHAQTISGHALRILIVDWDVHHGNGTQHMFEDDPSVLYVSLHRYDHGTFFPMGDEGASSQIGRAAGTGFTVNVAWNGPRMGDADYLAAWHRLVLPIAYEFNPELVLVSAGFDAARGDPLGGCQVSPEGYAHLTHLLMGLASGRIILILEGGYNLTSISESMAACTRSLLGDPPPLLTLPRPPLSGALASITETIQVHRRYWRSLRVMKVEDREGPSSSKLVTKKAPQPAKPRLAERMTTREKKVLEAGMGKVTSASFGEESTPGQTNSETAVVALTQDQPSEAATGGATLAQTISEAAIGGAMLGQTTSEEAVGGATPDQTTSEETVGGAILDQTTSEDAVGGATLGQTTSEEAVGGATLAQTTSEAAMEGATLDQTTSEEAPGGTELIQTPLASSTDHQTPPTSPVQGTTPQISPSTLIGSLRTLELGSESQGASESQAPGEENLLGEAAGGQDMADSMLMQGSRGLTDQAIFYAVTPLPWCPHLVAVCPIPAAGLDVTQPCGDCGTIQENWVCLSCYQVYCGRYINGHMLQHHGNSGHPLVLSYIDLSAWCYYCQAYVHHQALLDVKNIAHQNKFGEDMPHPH
Protocol: as §1, §2, §3

## N#Cc1ccc(N2C(=O)C3(CCC3)N(c3ccc(C(=O)NO)c(F)c3)C2=S)cc1C(F)(F)F [Zeta55]
HSP90, HSP60, HSP70
  expression levels of HSP70: slightly up-regulated
  expression levels of HSP90 and HSP60: did not influence
HEK293 cells
  IC50: > 50 µM
AR
  AR protein level: decreased AR protein level in a dose-dependent manner
HDAC6
  α-tubulin acetylation: enhanced α-tubulin acetylation in a dose-dependent manner
